Consider 25 compounds from patent US20080090863A1, “Pyridine Derivatives and Their Use as Medicaments for Treating Diseases Related to Mch Receptor” (TAISHO PHARMACEUTICAL CO., LTD., priority 2004, published 2008).

Each structure is given as a SMILES string. Where a name gives a salt, the structure may show the parent alone.

The target of the first test is MCH receptor (Homo sapiens, UniProt Q99705). In words: High Throughput Functional Screening: FLIPR/FDSS6000 intracellular Ca2+ assay, antagonist activity against MCH. The format is cell-based. Also noted: class (percent of control at 10^−7 M or IC50): scale not given here. The conditions noted are these: FLIPR/FDSS, [Ca2+]i evoked by 50 nM MCH, non-endogenous constitutively active MCH receptor; read-out: IC50. The source says:
Subsequently, a functional based assay was used to confirm the lead hits, referred to as FLIPR™ (the Fluorometric Imaging Plate Reader) and FDSS6000™ (Functional Drug Screening System). This assay utilized a non-endogenous, constitutively active version of the MCH receptor.
The FLIPR and FDSS assays are able to detect intracellular Ca^2+ concentration in cells, which can be utilized to assess receptor activation and determine whether a candidate compound is an, for example, antagonist, inverse agonist or agonist to a Gq-coupled receptor. The concentration of free Ca^2+ in the cytosol of any cell is extremely low, whereas its concentration in the extracellular fluid and endoplasmic reticulum (ER) is very high. Thus, there is a large gradient tending to drive Ca^2+ into the cytosol across both the plasma membrane and ER. The FLIPR™ and FDSS6000™ systems (Molecular Devices Corporation, HAMAMATSU Photonics K.K.) are designed to perform functional cell-based assays, such as the measurement of intracellular calcium for high-throughput screening. The measurement of fluorescent is associated with calcium release upon activation of the Gq-coupled receptors.
Fluorometric Imaging Plate Reader system was used to allow for rapid, kinetic measurements of intracellular fluorescence in 96 well microplates (or 384 well microplates). Simultaneous measurements of fluorescence in all wells can be made by FLIPR or FDSS6000™ every second with high sensitivity and precision. These systems are ideal for measuring cell-based functional assays such as monitoring the intracellular calcium fluxes that occur within seconds after activation of the Gq coupled receptor.
Briefly, the cells are seeded into 96 well at 5.5×10^4 cells/well with complete culture media (Dulbecco's Modified Eagle Medium with 10% fetal bovine serum, 2 mM L-glutamine, 1 mM sodium pyruvate and 0.5 mg/mL G418, pH 7.4) for the assay next day. On the day of assay, the media is removed and the cells are incubated with 100 μl of loading buffer (4 μM Fluo4-AM in complete culture media containing 2.5 mM Probenicid, 0.5 mg/ml and 0.2% bovine serum albumin) in 5% CO2 incubator at 37° C. for 1 hr. The loading buffer is removed, and the cells are washed with wash buffer (Hank's Balanced Salt Solution containing 2.5 mM Probenicid, 20 mM HEPES, 0.5 mg/mL and 0.2% bovine serum albumin, pH 7.4). One hundred fifty μl of wash buffer containing various concentrations of test compound is added to the cells, and the cells are incubated in 5% CO2 incubator at 37° C. for 30 min. Fifty μl of wash buffer containing various concentration of MCH are added to each well, and transient changes in [Ca^2+]i evoked by MCH are monitored using the FLIPR™ or FDSS in 96 well plates at Ex. 488 nm and Em. 530 nm for 290 second. When antagonist activity of compound is tested, 50 nM of MCH is used.
Use of FLIPR™ and FDSS6000™ can be accomplished by following manufacturer's instruction (Molecular Device Corporation and HAMAMATSU Photonics K.K.).
In the case of `Cc1cnc(N[C@H]2CC[C@@H](NC(=O)c3ccc(F)c(Cl)c3)CC2)cc1N(C)C` [Example 4, 3-Chloro-N-(cis-4-{[4-(dimethylamino)-5-methylpyridin-2-yl]amino}cyclohexyl)-4-fluorobenzamide hydrochloride], the 50% inhibitory concentration (IC50) came out at 0.001 µM.

Take `Cc1cnc(N[C@H]2CC[C@@H](NC(=O)c3cc(F)c(F)c(F)c3)CC2)cc1N(C)C` [Example 5, N-(cis-4-{[4-(Dimethylamino)-5-methylpyridin-2-yl]amino}cyclohexyl)-3,4,5-trifluorobenzamide hydrochloride]: the IC50 stood at 0.0019 µM.

Staying with this test, now noted: FLIPR/FDSS, [Ca2+]i evoked by 50 nM MCH; class by percent of control at 10^−7 M or IC50.
In the case of `Cc1ccc(N[C@H]2CC[C@@H](NC(=O)c3ccc(F)c(Cl)c3)CC2)nc1.Cl` [Example 2, 3-Chloro-4-fluoro-N-{cis-4-[(5-methylpyridin-2-yl)amino]cyclohexyl}benzamide hydrochloride], the “class (percent of control at 10^−7 M or IC50)” value is 2.

As for `Cc1cccc(N[C@H]2CC[C@@H](NC(=O)c3ccc(F)c(Cl)c3)CC2)n1.Cl` [Example 3, 3-Chloro-4-fluoro-N-{cis-4-[(6-methylpyridin-2-yl)amino]cyclohexyl}benzamide hydrochloride], the “class (percent of control at 10^−7 M or IC50)” value stood at 2.

Turning to `Cc1cnc(N[C@H]2CC[C@@H](NC(=O)c3ccc(F)c(Cl)c3)CC2)cc1N.Cl` [Example 17, N-{cis-4-[(4-Amino-5-methylpyridin-2-yl)amino]cyclohexyl}-3-chloro-4-fluorobenzamide hydrochloride], the “class (percent of control at 10^−7 M or IC50)” value is listed as 2.

Turning to `Cc1cnc(N[C@H]2CC[C@@H](NC(=O)c3cc(F)c(F)c(F)c3)CC2)cc1N.Cl` [Example 18, N-{cis-4-[(4-Amino-5-methylpyridin-2-yl)amino]cyclohexyl}-3,4,5-trifluorobenzamide hydrochloride], the “class (percent of control at 10^−7 M or IC50)” value came out at 2.

As to `CCN(C)c1cc(N[C@H]2CC[C@@H](NC(=O)c3ccc(F)c(Cl)c3)CC2)ncc1C.Cl` [Example 19, 3-Chloro-N-[cis-4-({4-[ethyl(methyl)amino]-5-methylpyridin-2-yl}amino)cyclohexyl]-4-fluorobenzamide hydrochloride], the “class (percent of control at 10^−7 M or IC50)” value is recorded as 2.

In the case of `Cc1cnc(N[C@H]2CC[C@@H](NC(=O)c3ccc(F)c(Cl)c3)CC2)cc1N1CCCC1.Cl` [Example 20, 3-Chloro-4-fluoro-N-{cis-4-[(5-methyl-4-pyrrolidin-1-ylpyridin-2-yl)amino]cyclohexyl}-benzamide hydrochloride], the “class (percent of control at 10^−7 M or IC50)” value amounted to 2.

Regarding `Cc1cnc(N[C@H]2CC[C@@H](NC(=O)Nc3ccc(F)c(Cl)c3)CC2)cc1N(C)C.Cl` [Example 25, N-(3-Chloro-4-fluorophenyl)-N′-(cis-4-{[4-(dimethylamino)-5-methylpyridin-2-yl]amino}cyclohexyl)urea hydrochloride], the “class (percent of control at 10^−7 M or IC50)” value amounted to 2.

In the case of `Cc1cnc(N[C@H]2CC[C@@H](NC(=S)Nc3ccc(F)c(Cl)c3)CC2)cc1N(C)C.Cl` [Example 26, N-(3-Chloro-4-fluorophenyl)-N′-(cis-4-{[4-(dimethylamino)-5-methylpyridin-2-yl]amino}-cyclohexyl)thiourea hydrochloride], the “class (percent of control at 10^−7 M or IC50)” value was 2.

On to `Cc1cnc(N[C@H]2CC[C@@H](NC(=O)Oc3ccc(Br)cc3)CC2)cc1N(C)C` [Example 27, 4-Bromophenyl (cis-4-{[4-(dimethylamino)-5-methylpyridin-2-yl]amino}cyclohexyl)carbamate], for which the “class (percent of control at 10^−7 M or IC50)” value is 2.

As to `Cc1cnc(N[C@H]2CC[C@@H](CNC(=O)c3ccc(F)c(Cl)c3)CC2)cc1N(C)C.Cl` [Example 32, 3-Chloro-N-[(cis-4-{[4-(dimethylamino)-5-methylpyridin-2-yl]amino}cyclohexyl)methyl]-4-fluorobenzamide hydrochloride], the “class (percent of control at 10^−7 M or IC50)” value is given as 2.

The same test, now with this note: FLIPR/FDSS, [Ca2+]i evoked by 50 nM MCH; class by percent of control at 10^−7 M or IC50; read-out: class (percent of control at 10^−7 M or IC50).
As to `Cc1cnc(N[C@H]2CC[C@@H](NC(=O)c3ccc(F)c(Cl)c3)CC2)cc1N(C)C` [Example 4, 3-Chloro-N-(cis-4-{[4-(dimethylamino)-5-methylpyridin-2-yl]amino}cyclohexyl)-4-fluorobenzamide hydrochloride], the half-maximal inhibitory concentration (IC50) is below 0.05 µM.

Take `Cc1cnc(N[C@H]2CC[C@@H](NC(=O)c3cc(F)c(F)c(F)c3)CC2)cc1N(C)C` [Example 5, N-(cis-4-{[4-(Dimethylamino)-5-methylpyridin-2-yl]amino}cyclohexyl)-3,4,5-trifluorobenzamide hydrochloride]: the IC50 was below 0.05 µM.

Take `Cc1cnc(N[C@H]2CC[C@@H](NC(=O)c3cc(F)cc(Cl)c3)CC2)cc1N(C)C` [Example 6, 3-Chloro-N-(cis-4-{[4-(dimethylamino)-5-methylpyridin-2-yl]amino}cyclohexyl)-5-fluorobenzamide hydrochloride]: the IC50 was below 0.05 µM.

For the compound `Cc1cnc(N[C@H]2CC[C@@H](NC(=O)c3cc(Cl)cc(Cl)c3)CC2)cc1N(C)C` [Example 7, 3,5-Dichloro-N-(cis-4-{[4-(dimethylamino)-5-methylpyridin-2-yl]amino}cyclohexyl)benzamide hydrochloride], the 50% inhibitory concentration (IC50) was below 0.05 µM.

For the compound `Cc1cnc(N[C@H]2CC[C@@H](NC(=O)c3ccc(F)c(F)c3)CC2)cc1N(C)C` [Example 8, N-(cis-4-{[4-(Dimethylamino)-5-methylpyridin-2-yl]amino}cyclohexyl)-3,4-difluorobenzamide hydrochloride], the IC50 was below 0.05 µM.

Take `Cc1cnc(N[C@H]2CC[C@@H](NC(=O)c3ccc(Cl)c(Cl)c3)CC2)cc1N(C)C` [Example 9, 3,4-Dichloro-N-(cis-4-{[4-(Dimethylamino)-5-methylpyridin-2-yl]amino}cyclohexyl)benzamide hydrochloride]: the IC50 was below 0.05 µM.

Turning to `Cc1cnc(N[C@H]2CC[C@@H](NC(=O)c3cccc(Cl)c3)CC2)cc1N(C)C` [Example 10, 3-Chloro-N-(cis-4-{[4-(dimethylamino)-5-methylpyridin-2-yl]amino}cyclohexyl)benzamide hydrochloride], the IC50 was below 0.05 µM.

As for `Cc1cnc(N[C@H]2CC[C@@H](NC(=O)c3cncc(Br)c3)CC2)cc1N(C)C` [Example 11, 5-Bromo-N-(cis-4-{[4-(dimethylamino)-5-methylpyridin-2-yl]amino}cyclohexyl)nicotinamide dihydrochloride], the half-inhibitory concentration (IC50) was below 0.05 µM.

Regarding `Cc1cnc(N[C@H]2CC[C@@H](NC(=O)c3cccc(OC(F)(F)F)c3)CC2)cc1N(C)C` [Example 12, N-(cis-4-{[4-(Dimethylamino)-5-methylpyridin-2-yl]amino}cyclohexyl)-3-(trifluoromethoxy)-benzamide hydrochloride], the concentration for half-maximal inhibition (IC50) is below 0.05 µM.

Regarding `Cc1cnc(N[C@H]2CC[C@@H](NC(=O)c3ccc(F)c(C(F)(F)F)c3)CC2)cc1N(C)C` [Example 13, N-(cis-4-{[4-(Dimethylamino)-5-methylpyridin-2-yl]amino}cyclohexyl)-4-fluoro-3-(trifluoromethyl)benzamide hydrochloride], the 50% inhibitory concentration (IC50) is below 0.05 µM.

On to `Cc1cnc(N[C@H]2CC[C@@H](NC(=O)c3cccc(C(F)(F)F)c3)CC2)cc1N(C)C` [Example 14, N-(cis-4-{[4-(Dimethylamino)-5-methylpyridin-2-yl]amino}cyclohexyl)-3-(trifluoromethyl)-benzamide hydrochloride], for which the half-maximal inhibitory concentration (IC50) is below 0.05 µM.

For the compound `CNc1cc(N[C@H]2CC[C@@H](NC(=O)c3ccc(F)c(Cl)c3)CC2)ncc1C` [Example 15, 3-Chloro-4-fluoro-N-(cis-4-{[5-methyl-4-(methylamino)pyridin-2-yl]amino}cyclohexyl)-benzamide hydrochloride], the half-inhibitory concentration (IC50) is below 0.05 µM.

On to `CNc1cc(N[C@H]2CC[C@@H](NC(=O)c3cc(F)c(F)c(F)c3)CC2)ncc1C` [Example 16, 3,4,5-Trifluoro-N-(cis-4-{[5-methyl-4-(methylamino)pyridin-2-yl]amino}cyclohexyl)-benzamide hydrochloride], for which the half-inhibitory concentration (IC50) was below 0.05 µM.

Turning to `Cc1cc(N(C)C)cc(N[C@H]2CC[C@@H](NC(=O)c3ccc(F)c(Cl)c3)CC2)n1` [Example 28, 3-Chloro-N-(cis-4-{[4-(dimethylamino)-6-methylpyridin-2-yl]amino}cyclohexyl)-4-fluorobenzamide hydrochloride], the IC50 was below 0.05 µM.

Take `Cc1cc(N(C)C)cc(N[C@H]2CC[C@@H](NC(=O)c3cc(F)c(F)c(F)c3)CC2)n1` [Example 29, N-(cis-4-{[4-(Dimethylamino)-6-methylpyridin-2-yl]amino}cyclohexyl)-3,4,5-trifluorobenzamide hydrochloride]: the half-inhibitory concentration (IC50) is below 0.05 µM.
